The subject of series [1] is SW-480 colon adenocarcinoma cells. Kind of series: Apoptosis, DNA fragmentation (Cell Death Detection ELISA plus). The format is cell-based, human. To be noted: for EC50: SW-480, by data analysis software or estimated from effective concentration range. The protocol:
(§1) Apoptosis was also measured based on the amount of fragmented DNA contained in cell lysates. Briefly, SW-480 colon adenocarcinoma cells were plated in 96-well microtitre plates ("MTP") at a density of 10K cells/well in 180 μl and were incubated for 24 hrs. Cells were then treated with 20 μl aliquots of appropriately diluted compound, and allowed to incubate for an additional 48 hrs.
After the incubation, samples were prepared according to the following steps. The MTP was centrifuged (15 min., 1000 rpm) and the supernatant was carefully removed by fast inversion of the MTP. The cell pellets in each well were resuspended in 200 μl lysis buffer and incubated for 45 min. at room temperature to lyse the cells. The lysates were then centrifuged (15 min., 1000 rpm) and 20 μl aliquots of the supernatant (=cytoplasmicfraction) were transferred into the streptavidin-coated MTP for analysis. Care was taken not to shake the lysed pellets in the MTP (=cell nucleii containing high molecular weight, unfragmented DNA). Samples were analyzed immediately, because storage at 4° C. or -20° C. reduces the ELISA-signals.
Samples were then processed according to a DNA fragmentation assay protocol, and dose-response curves were generated based on optical density readings. Quantification of DNA was done by a commercially available photometric enzyme-immunoassay manufactured by Mannheim-Boehringer under the name "Cell Death Detection ELISA ^plus ". The assay is based on a quantitative sandwich-enzyme-immunoassay-principle using mouse monoclonal antibodies directed against DNA and histones, respectively. This allows the specific determination of mono and oligonucleosomes in the cytoplasmatic fraction of cell lysates. In brief, the assay procedure is as follows. The sample (cell-lysate, serum, culture-supematant etc.) is placed into a streptavidin-coated MTP. Subsequently, a mixture of anti-histone-biotin and anti-DNA-POD is followed by incubation for 2 hours. During the incubation period, the anti-histone antibody binds to the histone-component of the nucleosomes and simultaneously fixes the immunocomplex to the streptavidin-coated MTP via its biotinylation. Additionally, the anti-DNA-POD antibody reacts with the DNA component of the nucleosomes. After removal of unbound antibodies by washing, the amount of nucleosomes is quantified by the POD retained in the immunocomplex. POD is determined photometrically with ABTS® (2,2'-Azino-di[3-ethylbenzthiazolin-sulfonate]) as substrate.
Fold stimulation (FS=ODmax/ODveh), an indicator of apoptotic response, was determined for each compound tested. EC50 values were determined either specifically by data analysis software, or by estimates based on the effective concentration range of each compound (ECR=min. effective dose-min. dose to peak effect). These FS and EC50 values for the tested compounds are listed above in Table 3.
(§2) In addition, using the DNA fragmentation test above, dose responses for the compounds of Example 8 and 9 were obtained.
Based on the data obtained from the DNA fragmentation tests in Tables 4 and 5, fold stimulations values for those compounds are also calculated at 100 μM by dividing the optical densities obtained at 100 μM by the optical densities of the control. Based on the data in Tables 4 and 5, fold stimulation values of 3.9 and 2.1 for the compounds of Examples 8 and 9 are obtained, accordingly.

The subject of series [2] is HT-29 human colon carcinoma cells. Kind of series: Apoptosis, morphology of apoptotic cells by fluorescent microscopy (acridine orange / ethidium bromide). The format is cell-based. The protocol: Apoptosis was measured using an assay of cell death based on morphological characteristics of apoptotic cells (i.e., condensed chromatin). Drug preparation and cell culture conditions were the same as for the SRB assay described above, except that HT-29 human colon carcinoma cells were used. Confluent cultures were established in 12.5 cm^2 flasks by plating 0.5×10^6 cells/flask. The cultures were assayed for apoptosis by fluorescent microscopy following labeling with acridine orange and ethidium bromide. Floating and attached cells were collected by trypsinization and washed three times in PBS. One ml aliquots were centrifuged (3 g). The pellet was resuspended in 25 μl media and 1 μl of a dye mixture containing 100 μg/ml acridine orange and 100 μg/ml ethidium bromide prepared in PBS and mixed gently. Ten μl of the mixture were placed on a microscope slide and covered with a 22 mm^2 coverslip, which was examined with 40× dry objectives under epillumination by filter combination.
An observer blinded in regard to the identity of the samples scored at least 100 cells per sample. Apoptotic cells were identified by nuclear condensation of chromatin stained by the acridine orange or ethidium bromide.

Series [3] deals with human colon carcinoma cell line, SW-480. Kind of series: Growth inhibition, Sulforhodamine B (SRB) protein binding assay. The format is cell-based. To be noted: for inhibition at 100 µM: SW480, 144 h, SW-480, six days. The protocol:
The compounds of Examples #1, #8, and #9 were assayed for their growth inhibitory activity on the human colon carcinoma cell line, SW-480 obtained from ATCC (Rockville, Md.), to ascertain the degree of growth inhibition. Growth inhibition of this cell line is indicative of a benefit on precancerous lesions and neoplasms. The cell line and growth assay employed for such experiments are well characterized, and are used to evaluate the anti-neoplastic properties of compounds. The assay is used by the United States National Cancer Institute in its screening program for new anti-cancer drugs.
Drug stock solutions were made in 100% DMSO and were then diluted with RPMI media for cell culture testing. All drug solutions were prepared fresh on the day of testing. The cultured cells were obtained at passage #99 and grown in RPMI media supplemented with 5% fetal calf serum, and 2 mM glutamine, 100 U/ml penicillin, […] streptomycin, and 0.25 μg/ml amphotericin. The cultures were maintained in a humidified atmosphere of 95% air and 5% CO2 at 37° C. The cultures were passaged at preconfluent densities using a solution of 0.05% trypsin and 0.53 mM EDTA. Cells were plated at 1000 cells/well for 96 well flat-bottom microtiter plates.
Tumor cell growth inhibition was assessed using the Sulforhodamine B (SRB) protein binding assay. […] For each plate, 6 wells were designated as no treatment controls, six wells as vehicle (0.1% DMSO) controls, and the remaining wells for drug dilutions with three wells per drug. At the end of the exposure period, the cells were fixed and stained with sulforhodamine B, a protein binding dye. The dye was then solubilized, and the optical density of the resulting solution was determined on a 96-well plate reader. The mean dye intensity of the treated wells was then divided by the mean dye intensity in the control wells (6 wells of each) to determine the effect of the drug on the cells. Dye intensity is proportional to the number of cells or amount of protein per well. The resultant "percent inhibition" value then represents the degree of growth inhibition caused by the drug.
In addition, a dose response for growth inhibition was determined for the compound of Example 9, and an IC50 value was determined. This value is equivalent to the concentration of drug needed to inhibit tumor cell growth by 50%. […] Each experiment included at least three wells per drug concentration. Concentration was plotted on a log scale on the X-axis.

Series [4] deals with SW-480 colon adenocarcinoma cells. Kind of series: Growth (% vehicle) in dose response of the DNA fragmentation test. The format is cell-based. To be noted: Homo sapiens, SW480, 48 h. The protocol:
as §1, §2

Series [5] has as its target T1, purified cyclooxygenase Type I (COX-I) (Ovis aries, UniProt P05979).
T1 construct: The COX-I was purified from ram seminal vesicles; from tissue; host or cells: ram seminal vesicles
T1 sequence (P05979 25-600): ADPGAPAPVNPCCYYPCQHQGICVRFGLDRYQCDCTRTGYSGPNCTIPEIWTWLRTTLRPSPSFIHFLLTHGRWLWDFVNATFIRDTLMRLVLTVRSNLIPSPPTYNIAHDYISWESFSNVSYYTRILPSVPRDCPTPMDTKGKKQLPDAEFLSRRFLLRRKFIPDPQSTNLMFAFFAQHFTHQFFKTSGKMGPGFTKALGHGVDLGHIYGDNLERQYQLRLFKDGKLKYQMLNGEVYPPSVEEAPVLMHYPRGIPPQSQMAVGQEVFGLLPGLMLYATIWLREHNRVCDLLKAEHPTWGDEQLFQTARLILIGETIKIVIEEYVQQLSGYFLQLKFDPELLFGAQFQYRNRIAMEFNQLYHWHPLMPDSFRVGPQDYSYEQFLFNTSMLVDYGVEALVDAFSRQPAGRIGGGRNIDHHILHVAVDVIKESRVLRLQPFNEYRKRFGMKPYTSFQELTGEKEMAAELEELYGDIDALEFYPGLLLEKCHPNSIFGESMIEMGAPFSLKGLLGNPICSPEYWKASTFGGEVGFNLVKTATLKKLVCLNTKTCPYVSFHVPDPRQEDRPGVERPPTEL
The series is described as follows: Cyclooxygenase Type I (COX-I) inhibition. The format is biochemical, ram. To be noted: arachidonic acid 100 μM, 2.0 min at 37° C. The protocol: COX-I catalyzes the formation of prostaglandins and thromboxane by the oxidative metabolism of arachidonic acid.
Briefly, purified COX-I was incubated with arachidonic acid (100 μM) for 2.0 min at 37° C. in the presence or absence of test compounds. The assay was terminated by the addition of TCA, and COX-I activity was determined by absorbance at 530 nm.

Another series concerns colonic polyps. To be noted: cited from earlier work.
Where [6] appears, read: Homo sapiens, SW480, 48 h, 100 μM, OD at 100 μM divided by OD of control, read-out: fold stimulation calculated at 100 μM from Tables 4 and 5.
Setting [7] is: Homo sapiens, SW480, 100 μM, FS=ODmax/ODveh, fold stimulation, SW-480, 48 hrs, read-out: DNA Fragmentation FS (100 μM).

Like-named read-outs stand apart in the source and are kept apart here.

On to `CC1=C(CC(=O)O)c2cc(F)ccc2/C1=C\c1ccc(S(C)(=O)=O)cc1` [Exisulind, reference compound], for which, in series [1] (Homo sapiens, SW480, 700 μM, FS=ODmax/ODveh, fold stimulation, SW-480, 48 hrs), the fold induction at 700 µM is 3.4. Also, in series [1] (Homo sapiens, SW480), the EC50 (usually the concentration that produces a half-maximal response) was 425 µM. Further, in series [2] (540 μM), the “Morphology % Apoptotic Cells (@540 μM)” value was found to be 48%.
Consider `COc1cc(/C=C2/C(C)=C(CCO)c3cc(F)ccc32)cc(OC)c1OC` [Example 8, (Z)-5-Fluoro-2-Methyl-1-(3,4,5-Trimethoxybenzylidene)-1H-3-Indenyl-(2-Hydroxy)Ethane], for which the “Apoptosis Level (Mean OD Value ± SD)” value in series [1] (0.001 μM) came to 0.252 ± 0.017 OD; in series [1] (0.01 μM), 0.272 ± 0.013 OD; in series [1] (0.1 μM), 0.277 ± 0.044 OD; in series [1] (1 μM) it was 0.304 ± 0.044 OD; in series [1] (10 μM), 0.355 ± 0.049 OD; in series [1] (100 μM), 0.974 ± 0.124 OD. The “Apoptosis Level (Mean OD Value ± SD)” value in series [1] (500 μM) is 0.76 ± 0.113 OD. Besides, the fold induction at 100 µM was 3.9 in series [1] (setting [6]) and 5.4 in series [1] (setting [7]). Further, in series [1] (Homo sapiens, SW480), the EC50 is 20 µM. Moreover, in series [3], the inhibition – broadly, the percentage by which the read-out fell short of the control – at 100 µM was 93%. The activity at 0.001 µM in series [4] (0.001 μM) was determined as 101 ± 4.6%. In series [4], the activity at 0.01 µM turned out to be 109 ± 9.2%. For the same compound, the activity at 0.1 µM in series [4] is 105 ± 5.5%. Further, in series [4], the activity at 1 µM was 103 ± 6.6%. Also, in series [4], the activity at 10 µM was 24 ± 16%. The activity at 100 µM in series [4] amounted to 5 ± 0.6%. In addition, in series [4] (500 μM), the activity at 500 µM was found to be 9 ± 3.4%.
For the compound `CSc1ccc(/C=C2/C(C)=C(CCO)c3cc(F)ccc32)cc1` [Example 1, (Z)-5-Fluoro-2-Methyl-1-(4-Methylthio-Benzylidene)-1H-3-Indenyl-(2-Hydroxy)Ethane], the fold induction at 100 µM in series [1] (setting [7]) turned out to be 4.9. Further, the inhibition at 100 µM turned out to be 70% in series [5] and 71% in series [3].
Take `CC1=C(CC(=O)O)c2cc(F)ccc2/C1=C\c1ccc([S+](C)[O-])cc1` (stereo not drawn) [sulindac]: the gastric side effects entry in the series with colonic polyps (chronic administration, high cancer-risk patients) is given as “causes gastric side effects in many such patients”. For the same compound, the “effect on colonic polyps” value with colonic polyps (patients) is “Polyps virtually disappear”.
With `CC1=C(CCO)c2cc(F)ccc2/C1=C\c1ccc(S(C)(=O)=O)cc1` [Example 9, (Z)-5-Fluoro-2-Methyl-1-(4-Methylsulfonylbenzylidene)-1H-3-Indenyl-(2-Hydroxy)Ethane], the “Apoptosis Level (Mean OD Value ± SD)” value was 0.272 ± 0.033 OD in series [1] (0.01 μM); 0.285 ± 0.03 OD in series [1] (0.05 μM); 0.312 ± 0.05 OD in series [1] (0.1 μM); 0.258 ± 0.03 OD in series [1] (0.5 μM); 0.296 ± 0.052 OD in series [1] (1 μM); 0.239 ± 0.024 OD in series [1] (5 μM). The “Apoptosis Level (Mean OD Value ± SD)” value is 0.261 ± 0.022 OD in series [1] (10 μM), 0.259 ± 0.068 OD in series [1] (50 μM) and 0.742 ± 0.095 OD in series [1] (100 μM). Also, the fold induction at 100 µM in series [1] (setting [6]) is 2.1; in series [1] (setting [7]) it was 6.5. Also, the concentration giving a half-maximal response (EC50) in series [1] (Homo sapiens, SW480) was 89.3 µM. The figures for the inhibition at 100 µM in series [5] and in series [3] were less than 25% and 84%, respectively. The “Morphology % Apoptotic Cells 100 μM” value in series [2] (100 μM) is 98%. Besides, the IC50 (in general, the concentration needed to halve the response being measured) in series [3] (SW480, SW-480, obtained graphically from dose response) was 29.2 µM. Moreover, the activity at 0.01 µM in series [4] was 107 ± 7.4%. Further, in series [4] (0.05 μM), the activity at 0.05 µM is 108 ± 9.6%. Besides, the activity at 0.1 µM in series [4] amounted to 111 ± 16.7%. Besides, the activity at 0.5 µM in series [4] (0.5 μM) came to 114 ± 18.1%. Moreover, the activity at 1 µM in series [4] came to 106 ± 6.3%. Also, the activity at 5 µM in series [4] (5 μM) is 100 ± 8.3%. Also, the activity at 10 µM in series [4] is 103 ± 9.3%. Further, the activity at 50 µM in series [4] (50 μM) was found to be 35 ± 0.246%. Moreover, the activity at 100 µM in series [4] worked out at 21 ± 0.65%.
